Test system: platelet; smooth muscle of bronchi, and of coronary, cerebral and pulmonary arteries
Experiment: not given
Conditions: "it is said that"; prior art; cited from earlier work

For CCCCC[C@H](O)/C=C/[C@H]1O[C@H]2C[C@H](O2)[C@@H]1C/C=C\CCCC(=O)O [thromboxane A2], the “concentration at which the strong action occurs” value is given as 10^-10 to 10^-11 M.

Test system: washed platelet
Experiment: Inhibition of platelet aggregation caused by collagen (washed platelet, aggregometer)
Assay type: cell-based, male rat (Sprague-Dowley)
Conditions: 0.05 h; platelet aggregating agent: collagen, 4 μg/ml final; rat washed platelet, 37° C.; measured 3 minutes after adding agent; read-out: Inhibition of Platelet Aggregation [50% Inhibitory Concentration]
Protocol: From the abdominal artery of a male rat (Sprague-Dowley, 8 weeks old) was collected 10 ml of blood with a syringe containing 1.5 ml of ACD (85 mM sodium citrate, 70 mM citric acid, 110 mM glucose) and 20 μg of prostaglandin E1. The blood is placed in a plastic test tube, mixed by moderate turning and centrifuged for 10 minutes at 160×g to give platelet rich plasma (PRP). To the prepared PRP was added apyrase (25 μg/ml) and the mixture was layered on 40% bovine serum albumin. The resulting mixture is centrifuged at 1200×g for 25 minutes. The platelet pellet suspended in a small amount of a buffer (137 mM NaCl, 2.7 mM KCl, 1.0 mM MgCl2, 3.8 mM NaH2 PO4, 3.8 mM Hepes, 5.6 mM glucose, 0.035% bovine serum albumin, pH 7.35) was applied on 10 ml of Sepharose 2B column and eluted with the buffer to prepare a washed platelet.
The platelet aggregation reaction was measured by an aggregometer (NKK HEMA TRACER 1 MODEL PAT-6A·6M, Niko bioscience). In a measuring cuvette was placed 245 μl of the washed platelet of which platelet number was adjusted to 5×10^5 /μl and set in the aggregometer. The washed platelet was stirred (1000 rpm) at 37° C. and 3.8 μl of 0.1M of CaCl2 was added thereto. One minutes after, 0.5 μl of a solution of test compound (dimethylsulfoxide solution) was added and 2 minutes after, 1 μl of Collagen reagent Horm® [HORMON-CHEMIE Munchen GMBH, final concentrate 4 μg/ml) as a platelet aggregating agent was added. The change in light transmittance caused by platelet aggregation was recorded against time elasped.
50% aggregation inhibitory rate was calculated from the aggregation inhibitory rate (which was measured 3 minutes after adding a platelet aggregating agent). The light transmittance for the washed platelet and the buffer were setted at 0% and 100%, respectively.

Compared with CC1(C)[C@H]2C[C@H](C/C=C\CCCC(=O)O)[C@H](NS(=O)(=O)c3ccccc3)[C@@H]1C2 [Compound 7a-a], CC1(C)[C@H]2C[C@H](C/C=C\CCCC(=O)O)[C@@H](NS(=O)(=O)c3ccccc3)[C@@H]1C2 [Compound 7b-a] is 16-fold lower in IC50: 11 nM for the first, 0.7 nM for the second. The second is the more potent here.

Compared with Cc1ccc(S(=O)(=O)N[C@H]2[C@@H](C/C=C\CCCC(=O)O)C[C@H]3C[C@@H]2C3(C)C)cc1 [Compound 7a-b], Cc1ccc(S(=O)(=O)N[C@@H]2[C@@H](C/C=C\CCCC(=O)O)C[C@H]3C[C@@H]2C3(C)C)cc1 [Compound 7b-b] is 68-fold lower in IC50: 115 nM for the first, 1.7 nM for the second. The second is the more potent here.

Going from CC1(C)[C@H]2C[C@H](C/C=C\CCCC(=O)O)[C@@H](NS(=O)(=O)c3ccc(Cl)cc3)[C@@H]1C2 [Compound 7b-d] to CC1(C)[C@H]2C[C@H](C/C=C\CCCC(=O)O)[C@@H](NS(=O)(=O)c3ccc(O)cc3)[C@@H]1C2 [Compound 7b-k], the IC50 falls from 5.3 nM to 1.8 nM (2.9-fold). The second is the more potent here.

Going from CC1(C)[C@H]2C[C@H](C/C=C\CCCC(=O)O)[C@@H](NS(=O)(=O)c3ccccc3Cl)[C@@H]1C2 [Compound 7b-e] to CC1(C)[C@H]2C[C@@H](C/C=C\CCCC(=O)O)[C@@H](NS(=O)(=O)c3ccccc3)[C@@H]1C2 [Compound 7d-a], the IC50 rises from 6.4 nM to 37 nM (5.8-fold). The first is the more potent here.

CC1(C)[C@H]2C[C@H](C/C=C\CCCC(=O)O)[C@@H](NS(=O)(=O)c3cccc(Cl)c3)[C@@H]1C2 [Compound 7b-f] and CC1(C)[C@H]2C[C@H](C/C=C/CCCC(=O)O)[C@@H](NS(=O)(=O)c3ccccc3)[C@@H]1C2 [Compound 10b-a] are within 1.5-fold of each other in IC50: 1.3 nM for the first, 1.4 nM for the second.

First: CCc1ccc(S(=O)(=O)N[C@@H]2[C@@H](C/C=C\CCCC(=O)O)C[C@H]3C[C@@H]2C3(C)C)cc1 [Compound 7b-g]
Second: COc1ccc(S(=O)(=O)N[C@@H]2[C@@H](C/C=C\CCCC(=O)O)C[C@H]3C[C@@H]2C3(C)C)cc1 [Compound 7b-i]
The IC50 of the first is 2.9-fold higher: 9.9 nM for the first, 3.4 nM for the second.

First: CC1(C)[C@H]2C[C@H](C/C=C\CCCC(=O)O)[C@@H](NS(=O)(=O)c3ccc([N+](=O)[O-])cc3)[C@@H]1C2 [Compound 7b-h]
Second: CC1(C)[C@H]2C[C@H](C/C=C\CCCC(=O)O)[C@@H](NS(=O)(=O)c3ccc4ccccc4c3)[C@@H]1C2 [Compound 7b-m]
The IC50 of the first is 6-fold higher: 26 nM for the first, 4.3 nM for the second. The second is the more potent here.

First: CC1(C)[C@H]2C[C@H](C/C=C\CCCC(=O)O)[C@@H](NS(=O)(=O)c3ccc(-c4ccccc4)cc3)[C@@H]1C2 [Compound 7b-l]
Second: CC1(C)[C@H]2C[C@H](C/C=C\CCCC(=O)O)[C@@H](NS(=O)(=O)Cc3ccccc3)[C@@H]1C2 [Compound 7b-o]
The IC50 of the first is 24-fold lower: 9.9 nM for the first, 240 nM for the second.

First: CC1(C)[C@H]2C[C@H](C/C=C\CCCC(=O)O)[C@@H](NS(C)(=O)=O)[C@@H]1C2 [Compound 7b-n]
Second: CC1(C)[C@H]2C[C@H](C/C=C\CCCC(=O)O)[C@@H](NS(=O)(=O)CCc3ccccc3)[C@@H]1C2 [Compound 7b-p]
The IC50 of the first is 37-fold higher: 480 nM for the first, 13 nM for the second. The second is the more potent here.

Compared with CC1(C)[C@H]2C[C@H](C/C=C\CCCC(=O)O)[C@@H](NS(=O)(=O)CCCc3ccccc3)[C@@H]1C2 [Compound 7b-q], CC1(C)C2CC(NCC(O)Cc3ccccc3)C(C/C=C\CCCC(=O)O)C1C2 (stereo not drawn) [ONO-11120, reference compound] is 9.6-fold higher in IC50: 12 nM for the first, 115 nM for the second. The first is the more potent here.

Reference: US4904819A, “Bicyclic sulfonamide derivatives and process therefor” (Shionogi & Co., Ltd., priority 1987, dated 1990)
